Data as given in ChEMBL document CHEMBL1821576, “Synthesis and antitumour activity of β-hydroxyisovalerylshikonin analogues” (Eur J Med Chem, 2011).

Columns and labels:
[1] = test system: HeLa; assay: Cytotoxicity against human HeLa cells by MTT assay; assay type: functional, cell-based
[2] = test system: DU-145; assay: Cytotoxicity against human DU145 cells by MTT assay; assay type: functional, cell-based
[3] = test system: DU-145; assay: Ratio of cyclophosphamide IC50 to compound IC50 for human DU145 cells; assay type: functional
[4] = test system: HeLa; assay: Ratio of cyclophosphamide IC50 to compound IC50 for human HeLa cells; assay type: functional
[5] = test system: DU-145; assay: Ratio of beta-hydroxyisovalerylshikonin IC50 to compound IC50 for human DU145 cells; assay type: functional
[6] = test system: HeLa; assay: Ratio of beta-hydroxyisovalerylshikonin IC50 to compound IC50 for human HeLa cells; assay type: functional

SMILES | IC50 [1] [µM] | IC50 [2] [µM] | Ratio IC50 [3] | Ratio IC50 [4] | Ratio IC50 [5] | Ratio IC50 [6]
CC(C)=CC[C@@H](OC(=O)C1CCCO1)C1=CC(=O)c2c(O)ccc(O)c2C1=O (stereo partly drawn) | 17 | 10.5 | 5 | 4 | – | –
CCCC(C)(O)CC(=O)O[C@H](CC=C(C)C)C1=CC(=O)c2c(O)ccc(O)c2C1=O (mixture of isomers) | 72 | 75 | – | – | – | –
CCC(O)CO[C@H](CC=C(C)C)C1=CC(=O)c2c(O)ccc(O)c2C1=O (mixture of isomers) | 28.7 | 16.4 | – | – | – | –
CC(C)=CC[C@@H](OC(=O)CC(O)c1ccccc1)C1=CC(=O)c2c(O)ccc(O)c2C1=O (mixture of isomers) | 44.5 | 17 | – | – | – | –
CCC(CO[C@H](CC=C(C)C)C1=CC(=O)c2c(O)ccc(O)c2C1=O)OC (mixture of isomers) | 63.5 | 45.7 | – | – | – | –
CCC(CO[C@H](CC=C(C)C)C1=CC(=O)c2c(O)ccc(O)c2C1=O)OC(C)=O (mixture of isomers) | 44 | 25.4 | – | – | – | –
CC(=O)OCCO[C@H](CC=C(C)C)C1=CC(=O)c2c(O)ccc(O)c2C1=O | 41.5 | 15.5 | – | – | – | –
CC(C)=CC[C@@H](OC(=O)c1ccco1)C1=CC(=O)c2c(O)ccc(O)c2C1=O | 80.3 | > 100 | – | – | – | –
COCCO[C@H](CC=C(C)C)C1=CC(=O)c2c(O)ccc(O)c2C1=O | 62.4 | 43.2 | – | – | – | –
CCCC(CC(=O)O[C@H](CC=C(C)C)C1=CC(=O)c2c(O)ccc(O)c2C1=O)OC(C)=O (mixture of isomers) | 51.2 | 55.7 | – | – | – | –
CC(C)=CC[C@@H](OC[C@@H](C)O)C1=CC(=O)c2c(O)ccc(O)c2C1=O | 22.5 | 14.3 | – | – | – | –
CCCCC(CC(=O)O[C@H](CC=C(C)C)C1=CC(=O)c2c(O)ccc(O)c2C1=O)OC(C)=O (stereo partly drawn) | 73.5 | 67.7 | – | – | – | –
CC(C)=CC[C@@H](OC(=O)C1CCCOC1)C1=CC(=O)c2c(O)ccc(O)c2C1=O (stereo partly drawn) | 60.5 | 29.7 | – | – | – | –
CC(C)=CC[C@@H](OC(=O)CC(C)(C)O)C1=CC(=O)c2c(O)ccc(O)c2C1=O [BETA-HYDROXYISOVALERYLSHIKONIN] | 55 | 16.8 | – | – | – | –
CCCCC(O)CC(=O)O[C@H](CC=C(C)C)C1=CC(=O)c2c(O)ccc(O)c2C1=O (mixture of isomers) | 72.2 | 45.3 | – | – | – | –
CC(C)=CC[C@@H](OC[C@H](C)O)C1=CC(=O)c2c(O)ccc(O)c2C1=O | 40.3 | 24.5 | – | – | – | –
CCCC(O)CC(=O)O[C@H](CC=C(C)C)C1=CC(=O)c2c(O)ccc(O)c2C1=O (mixture of isomers) | 59.3 | > 100 | – | – | – | –
CC[C@@](C)(O)CC(=O)O[C@H](CC=C(C)C)C1=CC(=O)c2c(O)ccc(O)c2C1=O | 17.9 | 12.7 | – | – | – | –

SMILES | IC50 [1] [µM] | IC50 [2] [µM] | Ratio IC50 [3] | Ratio IC50 [4] | Ratio IC50 [5] | Ratio IC50 [6]
CC(C)=CC[C@@H](OC(=O)C1CCCCO1)C1=CC(=O)c2c(O)ccc(O)c2C1=O (stereo partly drawn) | > 100 | 24.7 | – | – | – | –
CC[C@](C)(O)CC(=O)O[C@H](CC=C(C)C)C1=CC(=O)c2c(O)ccc(O)c2C1=O (racemic) | 30.2 | 20.5 | – | – | – | –
CC(=O)OCCC(=O)O[C@H](CC=C(C)C)C1=CC(=O)c2c(O)ccc(O)c2C1=O | 17.3 | 15.7 | – | – | – | –
COC(C)CO[C@H](CC=C(C)C)C1=CC(=O)c2c(O)ccc(O)c2C1=O (mixture of isomers) | 53.4 | 16.6 | – | – | – | –
CC(C)=CC[C@@H](OCCO)C1=CC(=O)c2c(O)ccc(O)c2C1=O | 18.6 | 9.9 | 5 | 4 | 2 | 3
CC(C)=CC[C@@H](OC(=O)CC(C)(O)C(C)C)C1=CC(=O)c2c(O)ccc(O)c2C1=O (mixture of isomers) | 27.7 | 16.9 | – | – | – | –
CCCCC(C)(O)CC(=O)O[C@H](CC=C(C)C)C1=CC(=O)c2c(O)ccc(O)c2C1=O (mixture of isomers) | 60.6 | 76.5 | – | – | – | –
CC(C)=CC[C@@H](OC(=O)CCO)C1=CC(=O)c2c(O)ccc(O)c2C1=O | 67.6 | 55.3 | – | – | – | –
CC(C)=CC[C@@H](OC(=O)C1CCOC1)C1=CC(=O)c2c(O)ccc(O)c2C1=O (stereo partly drawn) | 73.5 | 47.5 | – | – | – | –
O=P1(N(CCCl)CCCl)NCCCO1 (stereo not drawn) [CYCLOPHOSPHAMIDE ANHYDROUS] | 71.4 | 52.5 | – | – | – | –
CC(C)=CC[C@@H](OCC(C)O)C1=CC(=O)c2c(O)ccc(O)c2C1=O (mixture of isomers) | 24.7 | 16.1 | – | – | – | –
CC(C)=CC[C@@H](OC(=O)c1ccoc1)C1=CC(=O)c2c(O)ccc(O)c2C1=O | > 100 | > 100 | – | – | – | –
O=c1[nH]cc(F)c(=O)[nH]1 [FLUOROURACIL] | > 100 | > 100 | – | – | – | –
CCCCCCC(C)(O)CC(=O)O[C@H](CC=C(C)C)C1=CC(=O)c2c(O)ccc(O)c2C1=O (mixture of isomers) | > 100 | > 100 | – | – | – | –
CCC(C)(O)CC(=O)O[C@H](CC=C(C)C)C1=CC(=O)c2c(O)ccc(O)c2C1=O (mixture of isomers) | 25.2 | 16 | – | – | – | –
CC(C)=CC[C@@H](OC(=O)CC(C)(O)c1ccccc1)C1=CC(=O)c2c(O)ccc(O)c2C1=O (mixture of isomers) | 85.7 | > 100 | – | – | – | –
CC(=O)OC(C)CO[C@H](CC=C(C)C)C1=CC(=O)c2c(O)ccc(O)c2C1=O (mixture of isomers) | 40.1 | 16.6 | – | – | – | –
CCC(O)(CC)CC(=O)O[C@H](CC=C(C)C)C1=CC(=O)c2c(O)ccc(O)c2C1=O | 52 | 67 | – | – | – | –
